Test results taken from US20110251253A1, “SOLID FORMS OF (R)-1-(2,2-DIFLUOROBENZO[D][1,3]DIOXOL-5-YL)-N-(1-(2,3-DIHYDROXYPROPYL)-6-FLUORO-2-(1-HYDROXY-2-METHYLPROPAN-2-YL)-1H-INDOL-5-YL) CYCLOPROPANECARBOXAMIDE” (VERTEX PHARMACEUTICALS INCORPORATED, priority 2010, published 2011).

Test: Solubility of Compound 1 in solvents
Assay type: physicochemical

- solubility (acetonitrile, methanol, ethanol, isopropyl alcohol, acetone, organic solvent or mixture): > 20 mg/mL
- solubility (organic solvent or mixture, first solvent, e.g. ethyl acetate, ethanol, isopropyl alcohol, or acetone): > 20 mg/mL
- solubility (second solvent, for example heptane or water): < 1 mg/mL
Structure (SMILES): CC(C)(CO)c1cc2cc(NC(=O)C3(c4ccc5c(c4)OC(F)(F)O5)CC3)c(F)cc2n1C[C@@H](O)CO [Compound 1, (R)-1-(2,2-difluorobenzo[d][1,3]dioxol-5-yl)-N-(1-(2,3-dihydroxypropyl)-6-fluoro-2-(1-hydroxy-2-methylpropan-2-yl)-1H-indol-5-yl)cyclopropanecarboxamide]
